What was measured:
[1] = test system: carrageenan-induced paw edema; test: murine carrageenan-induced paw edema model; assay type: in vivo, mice; conditions: PO BID (totaling 60 mg/kg/day)
Method: (§1) In both the murine carrageenan-induced paw edema and hyperalgesia models, the top efficacious dose of MGBG is 30 mg/kg PO BID (totaling 60 mg/kg/day). Based upon this dosing paradigm in mice, at least two methods to estimate the equivalent dosing in humans may be used.
(§2) In the murine carrageenan models, we also observed efficacy of MGBG at lower doses, including 3 mg/kg PO BID and 10 mg/kg PO BID, which would proportionally convert to human doses of ˜0.42 mg/kg/day and ˜1.2 mg/kg/day.

[2] = test system: carrageenan-induced hyperalgesia; test: murine carrageenan-induced hyperalgesia model; assay type: in vivo, mice; conditions: PO BID (totaling 60 mg/kg/day)
Method: as §1, §2

[3] = Multi-species allometric scaling to predict human pharmacokinetic parameters; parameters: species or system humans; conditions: predicted human, ORAL, based on Mouse, Dog, Rhesus
Source text: Multi-species allometric scaling based on pharmacokinetic parameters was employed to calculate predicted pharmacokinetic parameters in humans according to methods known in the art. See, e.g., Ings R M, “Interspecies scaling and comparisons in drug development and toxicokinetics,” Xenobiotica, 1990 November; 20(11):1201-31 and Khor, S P et al., “Dihydropyrimidine dehydrogenase inactivation and 5-fluorouracil pharmacokinetics: allometric scaling of animal data, pharmacokinetics and toxicodynamics of 5-fluorouracil in humans,” Cancer Chemother Pharmacol (1997) 39(3): 833-38. Expected values are given below in Table 2.

[4] = test system: beagle dogs; test: In vivo evaluation of enterically coated capsules: tolerability / clinical observations; conditions: single oral doses 10, 30, 100 mg/kg
Source text: A comparative study of single, escalating doses of enterically coated MGBG capsules was undertaken in order to ascertain the feasibility and pharmacologic effect of delaying release of MGBG until the capsule has passed the stomach. […] Six male beagle dogs aged approximately 4 years 8 months to 5 years 6 months and weighing 10.95 to 12.85 kg (Covance Research Products) were weighed, acclimatized, and randomly assigned to treatment groups as shown below in Table 5.
The test article was administered once at each dose level during the study orally via capsule. Duplicate sets of enteric-coated capsules were prepared for each animal at each dose and evaluated for dissolution. The duplicate sample was placed in a 0.1 N HCl solution, and stirred using a magnetic stir bar and stir plate, for at least two hours. Triplicate samples of the acidic dissolution media were collected for analysis of MGBG content. The capsule was transferred to a phosphate buffer solution (pH 6.8), and stirred using a magnetic stir bar and stir plate, for approximately one hour. The capsule was visually inspected for signs of deformation. […]
Observations for morbidity, mortality, injury, and the availability of food and water were conducted twice daily for all animals. […] On occasion, clinical observations were recorded at unscheduled intervals. Body weights were measured and recorded on Days 1-4, 5, 12, and 32.

CC(/C=N/NC(=N)N)=N\NC(=N)N [MGBG, 1,1′[methylethanediylidene]dinitrilodiguanidine]
top efficacious dose [1]: 30 mg/kg | top efficacious dose [2]: 30 mg/kg | CL/F [3]: 20.9 mL/min/kg | V/F [3]: 41.6 L/kg | t1/2 [3]: 23.0 h | CL/F ([3]; Rat): 21.0 mL/min/kg | V/F ([3]; Rat): 42.4 L/kg | t1/2 ([3]; Rat): 23.3 h | tolerability / survival [4]: All dose levels were tolerated with all animals surviving to study termination

From US9668988B2, “Controlled release oral pharmaceutical dosage forms comprising MGBG” (Pathologica LLC, priority 2011, dated 2017)
